According to US20200354426A1 (MEDIMMUNE LIMITED, priority 2016, published 2020):
Where two headings read alike, the source gives them in different places. Numbered stars: 1 amine (or outer) side, 2 acyl side, 3 side chain; on linkers, the order of the positions; unused ones are H or OH. Side chains are listed from the residue outwards. Peptide text beside a SMILES is read from it. * marks the point of attachment. γGlu = O=C(O)[C@H](CCC(=O)[*:2])N[*:1]; Palmitoyl = CCCCCCCCCCCCCCCC(=O)*; Ahx = NCCCCCC(=O)O

How the values were obtained:
Assay in all cases: cAMP activity assay in assay medium (assay 1)
Assay type in all cases: cell-based
Conditions in all cases: Table 4
[1] = target: T1, Human GIPr (Homo sapiens, UniProt P48546)
T1 construct: expressed in transfected cells
T1 sequence (P48546 22-466): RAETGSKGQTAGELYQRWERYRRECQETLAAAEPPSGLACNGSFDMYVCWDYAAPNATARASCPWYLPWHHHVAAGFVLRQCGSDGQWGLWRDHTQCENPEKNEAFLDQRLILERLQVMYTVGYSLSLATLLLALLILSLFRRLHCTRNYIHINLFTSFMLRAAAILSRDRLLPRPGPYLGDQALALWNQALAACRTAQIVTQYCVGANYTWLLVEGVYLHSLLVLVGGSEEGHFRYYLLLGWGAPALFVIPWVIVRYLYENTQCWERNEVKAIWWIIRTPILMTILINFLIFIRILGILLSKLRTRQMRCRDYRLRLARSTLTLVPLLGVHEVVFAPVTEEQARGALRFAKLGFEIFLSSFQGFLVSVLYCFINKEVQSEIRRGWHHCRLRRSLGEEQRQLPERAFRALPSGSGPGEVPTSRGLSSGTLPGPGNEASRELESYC
From the text: (§1) Biological Activity of Peptides in Cell-Based cAMP Activity Assay (Assay 1):
(§2) All sample dilutions were made in duplicate.

[2] = target: T2, Human GlucR (Homo sapiens, UniProt P47871)
T2 construct: expressed in transfected cells
From the text: as §1, §2

[3] = target: Human GLP1R (Homo sapiens, UniProt P43220); set-up: expressed in transfected cells
From the text: as §1, §2

[4] = assay medium, read-out: hGIPR EC50
[5] = assay medium, read-out: hGlucR EC50
[6] = assay medium, read-out: hGLP1R EC50

Sequence of Human GLP1R (P43220 24-463): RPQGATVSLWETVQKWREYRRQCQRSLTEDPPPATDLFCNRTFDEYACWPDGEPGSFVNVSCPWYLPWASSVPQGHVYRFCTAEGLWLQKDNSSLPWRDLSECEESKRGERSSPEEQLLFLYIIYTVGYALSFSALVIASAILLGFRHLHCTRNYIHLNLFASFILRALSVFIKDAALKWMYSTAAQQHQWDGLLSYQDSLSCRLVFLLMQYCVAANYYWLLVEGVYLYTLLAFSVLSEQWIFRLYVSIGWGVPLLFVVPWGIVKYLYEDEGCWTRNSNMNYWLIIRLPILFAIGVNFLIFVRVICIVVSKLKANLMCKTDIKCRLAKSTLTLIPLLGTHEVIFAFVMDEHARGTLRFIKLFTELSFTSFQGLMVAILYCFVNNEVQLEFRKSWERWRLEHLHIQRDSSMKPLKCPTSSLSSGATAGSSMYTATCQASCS
T2 sequence (P47871 26-477): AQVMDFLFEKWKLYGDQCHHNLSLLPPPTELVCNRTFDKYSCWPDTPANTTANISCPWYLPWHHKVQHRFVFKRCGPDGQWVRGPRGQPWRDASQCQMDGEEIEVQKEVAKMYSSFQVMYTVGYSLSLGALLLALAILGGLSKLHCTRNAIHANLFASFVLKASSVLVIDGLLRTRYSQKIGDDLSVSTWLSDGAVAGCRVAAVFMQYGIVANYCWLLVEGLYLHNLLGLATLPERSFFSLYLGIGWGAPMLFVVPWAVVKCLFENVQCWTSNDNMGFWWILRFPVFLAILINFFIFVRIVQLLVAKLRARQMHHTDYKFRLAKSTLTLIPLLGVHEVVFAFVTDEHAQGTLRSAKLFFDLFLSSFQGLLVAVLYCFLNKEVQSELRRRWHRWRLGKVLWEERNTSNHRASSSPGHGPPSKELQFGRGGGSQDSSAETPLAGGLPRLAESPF

Row | Structure (SMILES) | EC50 [1, 4] | EC50 [2, 5] | EC50 [3, 6] | EC50 ([1]; hGIPR EC50, assay medium) | EC50 ([2]; hGlucR EC50, assay medium) | EC50 ([3]; hGLP1R EC50, assay medium)
1 | CCCCCCCCCCCCCCCC(=O)N[C@@H](CCC(=O)NCCCC[C@H](NC(=O)[C@H](CO)NC(=O)[C@H](CC(=O)O)NC(=O)[C@H](CC(C)C)NC(=O)[C@H](Cc1ccc(O)cc1)NC(=O)[C@H](CCC(=O)O)NC(=O)[C@H](CO)NC(=O)[C@H](Cc1ccc(O)cc1)NC(=O)[C@H](CC(=O)O)NC(=O)[C@H](CO)NC(=O)[C@@H](NC(=O)[C@H](Cc1ccccc1)NC(=O)[C@@H](NC(=O)CNC(=O)[C@H](CCC(N)=O)NC(=O)CNC(=O)[C@@H](N)Cc1c[nH]cn1)[C@@H](C)O)[C@@H](C)O)C(=O)N[C@@H](CCCNC(=N)N)C(=O)N[C@@H](C)C(=O)N[C@@H](CCCNC(=N)N)C(=O)N[C@@H](CC(=O)O)C(=O)N[C@@H](Cc1ccccc1)C(=O)N[C@H](C(=O)N[C@@H](CCC(=O)O)C(=O)N[C@@H](Cc1c[nH]c2ccccc12)C(=O)N[C@@H](CC(C)C)C(=O)N[C@@H](CCC(=O)O)C(=O)N[C@@H](CCCNC(=N)N)C(=O)NCC(=O)NCC(N)=O)C(C)C)C(=O)O [g723] | 761 nM | 8.95 nM | 0.33 nM | – | – | –
2 | CCCCCCCCCCCCCCCC(=O)NCCCCCC(=O)NCCCC[C@H](NC(=O)[C@H](CO)NC(=O)[C@H](CC(=O)O)NC(=O)[C@H](CC(C)C)NC(=O)[C@H](Cc1ccc(O)cc1)NC(=O)[C@H](CCC(=O)O)NC(=O)[C@H](CO)NC(=O)[C@H](Cc1ccc(O)cc1)NC(=O)[C@H](CC(=O)O)NC(=O)[C@H](CO)NC(=O)[C@@H](NC(=O)[C@H](Cc1ccccc1)NC(=O)[C@@H](NC(=O)CNC(=O)[C@H](CCC(=O)O)NC(=O)CNC(=O)[C@@H](N)Cc1c[nH]cn1)[C@@H](C)O)[C@@H](C)O)C(=O)N[C@@H](CCCNC(=N)N)C(=O)N[C@@H](C)C(=O)N[C@@H](CCCNC(=N)N)C(=O)N[C@@H](CC(=O)O)C(=O)N[C@@H](Cc1ccccc1)C(=O)N[C@H](C(=O)N[C@@H](C)C(=O)N[C@@H](Cc1c[nH]c2ccccc12)C(=O)N[C@@H](CC(C)C)C(=O)N[C@@H](CCC(=O)O)C(=O)N[C@@H](CCCNC(=N)N)C(=O)NCC(=O)NCC(N)=O)C(C)C [g724] (H-HGEGTFTSDYSEYLDSK([Ahx-Palmitoyl])RARDFVAWLERGG-NH2; N-terminus assumed) | 933 nM | 30.9 nM | 0.019 nM | – | – | –
3 | CCCCCCCCCCCCCCCC(=O)NCCCCCC(=O)NCCCC[C@H](NC(=O)[C@H](CO)NC(=O)[C@H](CC(=O)O)NC(=O)[C@H](CC(C)C)NC(=O)[C@H](Cc1ccc(O)cc1)NC(=O)[C@H](CCC(=O)O)NC(=O)[C@H](CO)NC(=O)[C@H](Cc1ccc(O)cc1)NC(=O)[C@H](CC(=O)O)NC(=O)[C@H](CO)NC(=O)[C@@H](NC(=O)[C@H](Cc1ccccc1)NC(=O)[C@@H](NC(=O)CNC(=O)[C@H](CCC(=O)O)NC(=O)CNC(=O)[C@@H](N)Cc1c[nH]cn1)[C@@H](C)O)[C@@H](C)O)C(=O)N[C@@H](CCCNC(=N)N)C(=O)N[C@@H](C)C(=O)N[C@@H](C)C(=O)N[C@@H](CC(=O)O)C(=O)N[C@@H](Cc1ccccc1)C(=O)N[C@H](C(=O)N[C@@H](C)C(=O)N[C@@H](Cc1c[nH]c2ccccc12)C(=O)N[C@@H](CC(C)C)C(=O)N[C@@H](CCC(=O)O)C(=O)N[C@@H](CCCNC(=N)N)C(=O)NCC(=O)NCC(N)=O)C(C)C [g725] (H-HGEGTFTSDYSEYLDSK([Ahx-Palmitoyl])RAADFVAWLERGG-NH2; N-terminus assumed) | 1480 nM | 59.9 nM | 0.0252 nM | – | – | –
4 | CCCCCCCCCCCCCCCC(=O)NCCCCCC(=O)NCCCC[C@H](NC(=O)[C@H](CO)NC(=O)[C@H](CC(=O)O)NC(=O)[C@H](CC(C)C)NC(=O)[C@H](Cc1ccc(O)cc1)NC(=O)[C@H](CCC(=O)O)NC(=O)[C@H](CO)NC(=O)[C@H](Cc1ccc(O)cc1)NC(=O)[C@H](CC(=O)O)NC(=O)[C@H](CO)NC(=O)[C@@H](NC(=O)[C@H](Cc1ccccc1)NC(=O)[C@@H](NC(=O)CNC(=O)[C@H](CCC(=O)O)NC(=O)CNC(=O)[C@@H](N)Cc1c[nH]cn1)[C@@H](C)O)[C@@H](C)O)C(=O)N[C@@H](CCCNC(=N)N)C(=O)N[C@@H](C)C(=O)N[C@@H](CCCNC(=N)N)C(=O)N[C@@H](CC(=O)O)C(=O)N[C@@H](Cc1ccccc1)C(=O)N[C@H](C(=O)N[C@@H](CCC(=O)O)C(=O)N[C@@H](Cc1c[nH]c2ccccc12)C(=O)N[C@@H](CC(C)C)C(=O)N[C@@H](CCC(=O)O)C(=O)N[C@@H](CCCNC(=N)N)C(=O)NCC(=O)NCC(N)=O)C(C)C [g726] (H-HGEGTFTSDYSEYLDSK([Ahx-Palmitoyl])RARDFVEWLERGG-NH2; N-terminus assumed) | 215 nM | 13.1 nM | 0.00791 nM | – | – | –
5 | CCCCCCCCCCCCCCCC(=O)N[C@@H](CCC(=O)NCCCC[C@H](NC(=O)[C@H](CCCCN)NC(=O)[C@H](CO)NC(=O)[C@H](Cc1ccc(O)cc1)NC(=O)[C@H](CC(=O)O)NC(=O)[C@H](CO)NC(=O)[C@@H](NC(=O)[C@H](Cc1ccccc1)NC(=O)[C@@H](NC(=O)CNC(=O)[C@H](CCC(N)=O)NC(=O)[C@H](CO)NC(=O)[C@@H](N)Cc1c[nH]cn1)[C@@H](C)O)[C@@H](C)O)C(=O)N[C@@H](CC(C)C)C(=O)N[C@@H](CC(=O)O)C(=O)N[C@@H](CO)C(=O)N[C@@H](CCC(=O)O)C(=O)N[C@@H](CCCNC(=N)N)C(=O)N[C@@H](C)C(=O)N[C@@H](CCC(N)=O)C(=O)N[C@@H](CC(=O)O)C(=O)N[C@@H](Cc1ccccc1)C(=O)N[C@H](C(=O)N[C@@H](CCC(N)=O)C(=O)N[C@@H](Cc1c[nH]c2ccccc12)C(=O)N[C@@H](CC(C)C)C(=O)N[C@H](C(=O)N[C@@H](C)C(=O)NCC(=O)NCC(N)=O)C(C)C)C(C)C)C(=O)O [g729] (H-HSQGTFTSDYSKK([γGlu-Palmitoyl])LDSERAQDFVQWLVAGG-NH2) | – | – | – | 209 nM | 0.0319 nM | 0.0729 nM

More lines, main results first:

Row | EC50 [1, 4] | EC50 [2, 5] | EC50 [3, 6] | Structure (SMILES) | EC50 ([1]; hGIPR EC50, assay medium) | EC50 ([2]; hGlucR EC50, assay medium) | EC50 ([3]; hGLP1R EC50, assay medium)
6 | 177 nM | 0.218 nM | 0.0263 nM | CCCCCCCCCCCCCCCC(=O)NCCCCCC(=O)NCCCC[C@H](NC(=O)[C@H](CO)NC(=O)[C@H](CC(=O)O)NC(=O)[C@H](CC(C)C)NC(=O)[C@H](Cc1ccc(O)cc1)NC(=O)[C@H](CCC(=O)O)NC(=O)[C@H](CO)NC(=O)[C@H](Cc1ccc(O)cc1)NC(=O)[C@H](CC(=O)O)NC(=O)[C@H](CO)NC(=O)[C@@H](NC(=O)[C@H](Cc1ccccc1)NC(=O)[C@@H](NC(=O)CNC(=O)[C@H](CCC(N)=O)NC(=O)CNC(=O)[C@@H](N)Cc1c[nH]cn1)[C@@H](C)O)[C@@H](C)O)C(=O)N[C@@H](CCCNC(=N)N)C(=O)N[C@@H](C)C(=O)N[C@@H](CCCNC(=N)N)C(=O)N[C@@H](CC(=O)O)C(=O)N[C@@H](Cc1ccccc1)C(=O)N[C@H](C(=O)N[C@@H](C)C(=O)N[C@@H](Cc1c[nH]c2ccccc12)C(=O)N[C@@H](CC(C)C)C(=O)N[C@@H](CCC(=O)O)C(=O)N[C@@H](CCCNC(=N)N)C(=O)NCC(=O)NCC(=O)O)C(C)C [g727] (H-HGQGTFTSDYSEYLDSK([Ahx-Palmitoyl])RARDFVAWLERGG-OH; N-terminus assumed) | – | – | –
7 | 395 nM | 2.44 nM | 0.169 nM | CCCCCCCCCCCCCCCC(=O)N[C@@H](CCC(=O)NCCCC[C@H](NC(=O)[C@H](CO)NC(=O)[C@H](Cc1ccc(O)cc1)NC(=O)[C@H](CC(=O)O)NC(=O)[C@H](CO)NC(=O)[C@@H](NC(=O)[C@H](Cc1ccccc1)NC(=O)[C@@H](NC(=O)CNC(=O)[C@H](CCC(N)=O)NC(=O)[C@H](CO)NC(=O)[C@@H](N)Cc1c[nH]cn1)[C@@H](C)O)[C@@H](C)O)C(=O)N[C@@H](Cc1ccc(O)cc1)C(=O)N[C@@H](CC(C)C)C(=O)N[C@@H](CC(=O)O)C(=O)N[C@@H](CO)C(=O)N[C@@H](CCC(=O)O)C(=O)N[C@@H](CCCNC(=N)N)C(=O)N[C@@H](C)C(=O)N[C@@H](CCCNC(=N)N)C(=O)N[C@@H](CC(=O)O)C(=O)N[C@@H](Cc1ccccc1)C(=O)N[C@H](C(=O)N[C@@H](C)C(=O)N[C@@H](Cc1c[nH]c2ccccc12)C(=O)N[C@@H](CC(C)C)C(=O)N[C@H](C(=O)N[C@@H](C)C(=O)NCC(=O)NCC(N)=O)C(C)C)C(C)C)C(=O)O [g728] (H-HSQGTFTSDYSK([γGlu-Palmitoyl])YLDSERARDFVAWLVAGG-NH2; N-terminus assumed) | – | – | –
8 | 40.7 nM | 0.0277 nM | 0.0422 nM | CCCCCCCCCCCCCCCC(=O)N[C@@H](CCC(=O)NCCCC[C@H](NC(=O)[C@H](Cc1ccc(O)cc1)NC(=O)[C@H](CCC(=O)O)NC(=O)[C@H](CO)NC(=O)[C@H](Cc1ccc(O)cc1)NC(=O)[C@H](CC(=O)O)NC(=O)[C@H](CO)NC(=O)[C@@H](NC(=O)[C@H](Cc1ccccc1)NC(=O)[C@@H](NC(=O)CNC(=O)[C@H](CCC(N)=O)NC(=O)[C@H](CO)NC(=O)[C@@H](N)Cc1c[nH]cn1)[C@@H](C)O)[C@@H](C)O)C(=O)N[C@@H](CC(=O)O)C(=O)N[C@@H](CO)C(=O)N[C@@H](CCCNC(=N)N)C(=O)N[C@@H](CCCNC(=N)N)C(=O)N[C@@H](C)C(=O)N[C@@H](CCC(N)=O)C(=O)N[C@@H](CC(=O)O)C(=O)N[C@@H](Cc1ccccc1)C(=O)N[C@H](C(=O)N[C@@H](CCC(N)=O)C(=O)N[C@@H](Cc1c[nH]c2ccccc12)C(=O)N[C@@H](CC(C)C)C(=O)N[C@H](C(=O)N[C@@H](C)C(=O)NCC(=O)NCC(N)=O)C(C)C)C(C)C)C(=O)O [g731] (H-HSQGTFTSDYSEYK([γGlu-Palmitoyl])DSRRAQDFVQWLVAGG-NH2; N-terminus assumed) | – | – | –
